“Also recorded” adds a separate entry of the source.
Legend:
LasR [1] = molecular target: T1, LasR (Pseudomonas aeruginosa, UniProt P25084); assay: lasI-gfp reporter agonist assay, PAO-JP2 (plasI-LVAgfp); format: cell-based, P. aeruginosa; settings: PAO-JP2 (plasI-LVAgfp), compounds made in solution phase, increasing concentrations (1, 100, 400 μM)
T1 construct: endogenous in cells; host or cells: P. aeruginosa PAO-JP2 (lasI, rhlI) harboring plasI-LVAgfp
Text: Since this strain lacks the ability to produce natural AIs due to disruption of both AI synthase genes, activation of LasR relies on the addition of exogenous AI1. Expression of gfp (encoding green fluorescent protein) is under control of the LasR-AI1 inducible lasI promoter, allowing rapid screening for LasR agonists by measuring the level of GFP expression in their presence.
(§1) P. aeruginosa strain PAO-JP2 (lasI, rhlI) (Rahme et al., Science 268:1899-1902 (1995), which is hereby incorporated by reference in its entirety) harboring plasI-LVAgfp (Pearson et al., Proc. Natl Acad. Sci. USA 91:197-201 (1994), which is hereby incorporated by reference in its entirety) was grown at 37° C. in LB with 300 μg/ml carbenicillin. For agonist assays, an overnight culture was diluted to an OD600 of 0.1 and transferred to wells of a 96-well plate on which test compounds had previously been added and dried. The final concentration of each analog tested was roughly 400 μM, although this is an overestimate due to purity issues. Cells were then incubated for 6 hours at 37° C. with vigorous shaking. GFP expression was detected with a Molecular Imager (BioRad) (488 nm excitation and 695 nm bandpass filter) and quantified with ImageQuant software. The OD600 of cultures was determined to normalize GFP expression to cell density.
(§2) Reporter strains were grown overnight in LB plus 300 μg/ml carbenicillin at 37° C. and diluted to an OD600 of 0.1. Following an incubation of 1 hour, 200 μl of cell culture was added to individual wells of a 96 well plate containing appropriate amount of test compound(s). Plates were incubated for 6 hours and then scanned for fluorescence emission with a Molecular Imager (488 nm excitation and 695 nm bandpass filter). Fluorescence was quantified with ImageQuant software.

LasR [2] = molecular target: T1, LasR; assay: lasB-lacZ reporter assay, E. coli MG4 (pKDT37); format: cell-based, P. aeruginosa; settings: E. coli MG4 (pKDT37), 6 hour incubation
Procedure: E. coli strain MG4 (pKDT37) was grown overnight in Supplemented A media with 100 μg/mL ampicillin at 30° C. and diluted 1:100 in the same media. 1 mL of this culture was added to a test tube containing AI1 or 3-oxo-C12-D12 that had been previously aliquoted and dried. Following a 6 hour incubation at 30° C., β-galactosidase activity was determined using standard methods (Platt et al., Assays of the lac operon Enzymes In: Experiments in Molecular Genetics, Cold Spring Harbor Laboratory Press, Cold Spring Harbor, N.Y., pp. 352-355 (1972), which is hereby incorporated by reference in its entirety).
One of the new agonist structures identified from the library, D12, is 2-aminocyclohexanol (FIG. 5B). […] 3-oxo-C12-D12, containing the natural side chain, was synthesized in solution phase, and tested with both the lasI-gfp reporter as well as a lasB-lacZ reporter in Escherichia coli. E. coli strain MG4 harboring plasmid pKDT37 expresses lasR and contains a lacZ reporter gene controlled by a LasR-AI1 inducible lasB promoter (Passador et al., J. Bacteriol. 178:5995-6000 (1996), which is hereby incorporated by reference in its entirety). […] It also provides strong evidence that the agonist activity in P. aeruginosa is LasR dependent.

RhlR = molecular target: T2, RhlR (Pseudomonas aeruginosa, UniProt P54292); settings: 4-fold excess, in E. coli; cited from earlier work
T2 construct: an RhlR-AI2 controlled rhlI-gfp reporter, PAO-JP2 (prhlI-LVAgfp); endogenous in cells; host or cells: P. aeruginosa PAO-JP2 (prhlI-LVAgfp)

LasR [3] = molecular target: T1, LasR; assay: lasI-gfp reporter antagonist (competition against AI1) assay, PAO-JP2 (plasI-LVAgfp); format: cell-based, P. aeruginosa; settings: 100-fold excess concentration over AI1 (1 μM AI1)
Procedure: as §1
The methods were the same as described in Example 2 (GFP Reporter Assay), except that 1 μM AI1 was added to each well in combination with the library compound. The fluorescence/OD600 of each compound competing against AI1 was reported relative to the fluorescence/OD600 of the positive control of AI1 alone, which was set to 1. When strain PAO-JP2 (prhlI-LVAgfp) was used, the positive control was 1 μM AI1 and 10 μM AI2. Eight compounds that inhibited reporter gene expression by greater than 50% were identified (see, e.g., FIG. 6).
as §2

Elastase B [4] = assay: elastase (Elastin Congo Red) assay, strain PAO-JP2; format: cell-based, P. aeruginosa PAO-JP2; settings: PAO-JP2, 5 μM AI1 and 10 μM AI2
Procedure: (§3) Pyocyanin, elastase, and biofilm were assayed as previously described (Smith et al., Chem. Biol. 10:81-89 (2003), which is hereby incorporated by reference in its entirety). Elastase activity produced by P. aeruginosa in the presence of AIs and competing 3-oxo-C12-D10 was determined by measuring breakdown of the substrate Elastin Congo Red.
(§4) For the elastase B assay, cells (PAO-JP2) were grown overnight in PTSB media (5% Peptone, 0.1% Tryptic Soy Broth) at 37° C., washed and diluted to an OD600 of 0.05, grown to mid-log phase, washed again, and re-suspended to an OD600 of 0.05. The culture was then added to test tubes containing test compound(s) and grown for 6 hours. Elastase B activity was quantified by incubation of 100 μl of filtered culture supernatant with 5 mg Elastin Congo Red substrate and 1 ml of 10 mM Tris pH 7.2, 1 mM CaCl2 for 6 hours at 37° C. with agitation. Elastase B activity is represented by the OD495 of the enzyme assay following reaction quenching with EDTA and centrifugation to remove unreacted substrate, divided by the OD600 of the cell culture. The same assay was run with strain PAO-1, however no exogenous autoinducers were added.

Elastase B [5] = assay: elastase (Elastin Congo Red) assay, wild type strain PAO1; format: cell-based, P. aeruginosa PAO1; settings: wild type PAO1, no exogenous autoinducers
Procedure: as §3, §4

pyocyanin [6] = assay: pyocyanin assay, strain PAO-JP2; format: cell-based, P. aeruginosa PAO-JP2; settings: PAO-JP2, 25 μM each of AI1 and AI2; not concentration dependent over the range tested
Procedure: (§5) For the pyocyanin assay, cells were grown overnight in LB then washed in fresh media and diluted to an OD600 of 0.05. This culture was grown for 3-4 hours to mid-log phase (OD600 of 0.3-0.5), then diluted to an OD600 of 0.05, and aliquoted to test tubes containing an appropriate amount of test compound(s). Following 18 hours of growth, pyocyanin was extracted from filtered culture supernatants and quantified using standard methods (Essar et al., J. Bacteriol. 172:884-900 (1990), which is hereby incorporated by reference in its entirety).

pyocyanin [7] = assay: pyocyanin assay, wild type strain PAO1; format: cell-based, P. aeruginosa PAO1; settings: wild type PAO1, no AIs added
Procedure: as §5

P. aeruginosa = assay: cell growth in the reporter assay; format: cell-based; settings: concentrations up to 400 μM
Procedure: Based on the above hypothesis, a competition assay of 2 and 3 against AI1, using strain PAO-JP2 (plasI-LVAgfp), was performed. […] It should be noted that this inhibition experiment was performed with competition against 1 μM AI1, a concentration typically produced by wild type P. aeruginosa (Pearson et al., Proc. Natl Acad. Sci. USA 92:1490-1494 (1995), which is hereby incorporated by reference in its entirety). […] It should also be noted that cell growth was not affected by the addition of 2 or 3 at concentrations up to 400 μM. Thus, it appears that compounds 2 and 3 act as specific inhibitors of QS controlled promoters. Compound 6 was also tested for its ability to compete against AI2, but no inhibition of the rhlI-gfp reporter gene was seen.

lasB promoter = settings: 320 μM furanone competing with 0.1 μM AI1; cited from earlier work

T1 sequence (P25084 whole entry): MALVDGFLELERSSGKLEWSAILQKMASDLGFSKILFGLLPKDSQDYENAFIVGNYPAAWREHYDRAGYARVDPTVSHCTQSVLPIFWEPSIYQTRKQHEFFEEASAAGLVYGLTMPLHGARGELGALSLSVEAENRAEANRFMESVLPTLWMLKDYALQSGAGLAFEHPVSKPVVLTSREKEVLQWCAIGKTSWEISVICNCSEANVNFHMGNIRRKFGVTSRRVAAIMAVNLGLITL
T2 sequence (P54292 whole entry): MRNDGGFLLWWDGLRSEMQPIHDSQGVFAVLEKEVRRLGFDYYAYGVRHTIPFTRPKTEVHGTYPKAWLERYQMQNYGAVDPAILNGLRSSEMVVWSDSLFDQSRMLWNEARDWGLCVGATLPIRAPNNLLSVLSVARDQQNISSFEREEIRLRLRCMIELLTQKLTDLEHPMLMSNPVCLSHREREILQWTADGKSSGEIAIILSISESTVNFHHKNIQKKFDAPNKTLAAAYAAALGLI

CCCCCCCCCC(=O)CC(=O)N[C@H]1CCOC1=O [AI1, N-(3-oxododecanoyl)-L-homoserine lactone, reference compound]
agonist activity (induction of lasI-gfp reporter) (LasR [1]): activated; also recorded: Strong QS induction | lasB-lacZ reporter activation (beta-galactosidase activity) (LasR [2]): activated | reduction of binding of AI2 to RhlR (RhlR): 86%

CCCCCCCCCC(=O)CC(=O)N[C@@H]1CCC[C@H]1O (racemic) [Compound 2, N-(trans-2-hydroxycyclopentyl)-3-oxododecanamide]
inhibition of GFP expression (lasI-gfp) (LasR [3]): approximately 70% | effect on elastase activity (Elastase B [4]): no significant effect | effect on elastase activity (Elastase B [5]): no significant effect | reduction of pyocyanin expression (pyocyanin [6]): 50% | effect on pyocyanin production (pyocyanin [7]): no significant effect | effect on cell growth (P. aeruginosa): not affected

O=C1C=C(Br)/C(=C/Br)O1 [furanone]
inhibition (antagonist activity) (lasB promoter): Approximately 50%
